Read-outs that look alike come from different tables or passages of the source.
How the values were obtained:
[1] = Analytical results of Azacitidine (API), untreated and gamma radiated: description, related substances; format: physicochemical
[2] = cited from earlier work
[3] = formation of RGU increased in acidic and basic conditions; cited from earlier work

Nc1ncn([C@@H]2O[C@H](CO)[C@@H](O)[C@H]2O)c(=O)n1 [Azacitidine, 4-amino-1-β-D-ribofuranosyl-1,3,5-triazin-2(1H)-one]
Description ([1]; gamma radiated): White to off | Related Substances: Single max. impurity ([1]; gamma radiated): 0.05% | Related Substances: Total impurities ([1]; gamma radiated): 0.24% | Description ([1]; untreated): White to off | Related Substances: Single max. impurity ([1]; untreated): 0.04% | Related Substances: Total impurities ([1]; untreated): 0.19% | Solubility ([2]; 5% Tween 80 in water): sparingly soluble | Solubility ([2]; 5% dextrose in water): sparingly soluble | Solubility ([2]; N-methyl-2-pyrrolidone): sparingly soluble | Solubility ([2]; acetone): insoluble | Solubility ([2]; dimethylsulfoxide (DMSO)): soluble | Solubility ([2]; ethanol/water (50/50)): slightly soluble | Solubility ([2]; ethanol): insoluble | Solubility ([2]; methyl ethyl ketone): insoluble | Solubility ([2]; normal saline): sparingly soluble | Solubility ([2]; polyethylene glycol): slightly soluble | Solubility ([2]; propylene glycol): slightly soluble | Solubility ([2]; water saturated octanol): sparingly soluble | Solubility ([2]; water): sparingly soluble | Optimal pH for stable formulation [3]: 6-7
